The record followed here is patent US10618916B2, “Heterocyclic compounds as immunomodulators” (Incyte Corporation, priority 2018, dated 2020).

In test [1] the test system is PD-L1 aAPC/CHO-K1 cells and Jurkat-PD-1-NFAT effector cells. Description: Nuclear factor of activated T-cells (NFAT) assay. Format: cell-based. The note with it: Cricetulus griseus, CHO-K1. As for the experimental part:
Example C. Nuclear Factor of Activated T-Cells (NFAT) Assay
PD-L1 aAPC/CHO-K1 cells (Promega) were maintained in F-12 medium with addition of 10% FBS, 200 μg/ml Hygromycin B, 250 μg/ml Geneticin (G418). Jurkat-PD-1-NFAT effector cells (Promega) were cultured in RPMI 1640 medium supplemented with 10% FBS, 100 μg/ml Hygromycin B, 500 μg/ml G418. The culture media of PD-L1 aAPC/CHO-K1 cells were first replaced with assay medium (RPMI1640 medium with 1% FBS). The PD-L1 aAPC/CHO-K1 cells were then added in a white 384-well white clear bottom assay plate (CELLCOAT® Tissue Culture Plates, Greiner Bio-One) at 8000 per well in 10 μL assay medium. Test compounds were prepared by serial dilution in DMSO and 0.8 μL test compounds in DMSO were first transferred to the 384 REMP plate well (Thermofisher) by PlateMate Plus (Thermofisher) followed with addition of 50 μL plating medium. 5 μL compounds in the assay medium were transferred to the cells with 0.4% DMSO in the final assay at 2 μM. After removing the culture media, 10,000 Jurkat-PD-1-NFAT effector cells in 5 μL assay medium was dispensed into each well. The assay plate was incubated at 37° C., 5% CO2 for 24 hours. After the assay plate was equilibrated to room temp for 15 minutes, 20 µL/well of Bio-Glo™ reagent (Promega) were added. After 8 minutes incubation at room temperature, luminescence was read at with Pherastar microplate reader (BMG Labtech). The fold of induction (FOI) was calculated based on the ratio of luminescence normalized to the DMSO wells within each assay plate. The maximum percentage of induction was reported based on the ratio between the highest FOI of each compound and the maximum FOI of control compound within each assay plate. Wells with DMSO were served as the negative controls and wells containing control compound with the highest FOI were used as positive controls. EC50 determination was performed by fitting the curve of percent control activity versus the log of the compound concentration using the GraphPad Prism 6.0 software.

For test [2], the target named is PD-1/PD-L1 protein/protein interaction (recombinant human PD-L1 and human PD-1) (Homo sapiens (Human), UniProt Q9NZQ7). Briefly: Homogeneous Time-Resolved Fluorescence (HTRF) PD-1/PD-L1 binding assay. As for the experimental part:
Example A. Homogeneous Time-Resolved Fluorescence (HTRF) PD-1/PD-L1 Binding Assay
The assays were conducted in a standard black 384-well polystyrene plate with a final volume of 20 μL. Inhibitors were first serially diluted in DMSO and then added to the plate wells before the addition of other reaction components. The final concentration of DMSO in the assay was 1%. The assays were carried out at 25° C. in the PBS buffer (pH 7.4) with 0.05% Tween-20 and 0.1% BSA. Recombinant human PD-L1 protein (19-238) with a His-tag at the C-terminus was purchased from AcroBiosystems (PD1-H5229). Recombinant human PD-1 protein (25-167) with Fc tag at the C-terminus was also purchased from AcroBiosystems (PD1-H5257). PD-L1 and PD-1 proteins were diluted in the assay buffer and 10 μL was added to the plate well. Plates were centrifuged and proteins were preincubated with inhibitors for 40 minutes. The incubation was followed by the addition of 10 μL of HTRF detection buffer supplemented with Europium cryptate-labeled anti-human IgG (PerkinElmer-AD0212) specific for Fc and anti-His antibody conjugated to SureLight®-Allophycocyanin (APC, PerkinElmer-AD0059H). After centrifugation, the plate was incubated at 25° C. for 60 min. before reading on a PHERAstar FS plate reader (665 nm/620 nm ratio). Final concentrations in the assay were—3 nM PD1, 10 nM PD-L1, 1 nM europium anti-human IgG and 20 nM anti-His-Allophycocyanin. IC50 determination was performed by fitting the curve of percent control activity versus the log of the inhibitor concentration using the GraphPad Prism 5.0 software.
Background: In TR-FRET formats the signal depends on donor and acceptor labels being close together.

The test system of test [3] is U2OS/PD-L1 cells and Jurkat-PD-1-SHP cells. Description: Src homology region 2 domain-containing phosphatase (SHP) assay. The note with it: Homo sapiens, U2OS. Format: cell-based. The procedure:
Example B. Src Homology Region 2 Domain-Containing Phosphatase (SHP) Assay
U2OS/PD-L1 cells (DiscoveRx Corporation) were maintained in McCoy's 5A medium with addition of 10% FBS, 0.25 μg/ml Puromycin. After removing the culture media, the cell medium was replaced with assay medium (RPMI1640 medium with 1% FBS). The U2OS/PD-L1 cells were then added in 384-well black clear bottom assay plate (CELLCOAT® Tissue Culture Plates, Greiner Bio-One) at 5000 cells per well in 20 μL assay medium. Test compounds were prepared by serial dilution in DMSO and 125 nL compound were first transferred to the 384 REMP plate well (Thermofisher) by ECHO liquid handler (Labcyte) followed with addition of 27.5 μL assay medium. 5 μL/well compounds in the assay medium were transferred to the cell plate with 0.05% DMSO in the final assay at […]. Jurkat-PD-1-SHP cells (DiscoveRx Corporation) were cultured in RPMI1640 medium supplemented with 10% FBS, 250 μg/ml Hygromycin B, 500 μg/ml G418. After the replacement of culture media with assay medium, 5,000 Jurkat-PD-1-SHP cells in 20 μL were dispensed into each well. The assay plate was incubated at 37° C., 5% CO2 for 2 hours before 2.5 μL PathHunter reagent 1 (DiscoveRx Corporation) were added to each well. The assay plate was shaken for 1 min at 350 rpm in the dark followed with addition of 10 μL PathHunter reagent 2 (DiscoveRx Corporation). Chemiluminescent signal was recorded with TopCount reader (Perkin Elmer) after incubation at room temperature for 1 hour. Wells with DMSO were served as the positive controls and wells containing no cells were used as negative controls. IC50 determination was performed by fitting the curve of percentage of control activity versus the log of the compound concentration using the GraphPad Prism 6.0 software.

Structures are written as SMILES. A value given as a limit tells only on which side of the number the result lay.

PD-1/PD-L1 protein/protein interaction (recombinant human PD-L1 and human PD-1), sequence (Q9NZQ7 19-238): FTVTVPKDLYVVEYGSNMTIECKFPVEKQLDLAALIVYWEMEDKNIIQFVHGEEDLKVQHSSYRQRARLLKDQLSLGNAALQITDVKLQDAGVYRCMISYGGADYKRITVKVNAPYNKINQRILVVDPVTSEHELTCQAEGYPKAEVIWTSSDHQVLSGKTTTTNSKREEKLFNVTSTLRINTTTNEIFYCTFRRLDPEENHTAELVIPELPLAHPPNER

Compound `Cc1c(NC(=O)c2nc3c(n2C)CCN(C)C3)cccc1-c1cccc(NC(=O)c2nc3c(n2C)CCN(CCC24CCC(C(=O)O)(CC2)C4)C3)c1Cl` [Example 29, 4-(2-(2-((2-chloro-3′-(1,5-dimethyl-4,5,6,7-tetrahydro-1H-imidazo[4,5-c]pyridine-2-carboxamido)-2′-methyl-[1,1′-biphenyl]-3-yl)carbamoyl)-1-methyl-1,4,6,7-tetrahydro-5H-imidazo[4,5-c]pyridin-5-yl)ethyl)bicyclo[2.2.1]heptane-1-carboxylic acid] gave an EC50 in test [1] of 0.01 to 0.1 µM. Besides, the IC50 in test [2] was at most 0.005 µM; in test [3], at most 0.01 µM.

In turn, `Cc1c(NC(=O)c2nc3c(n2C)CCN(CCC24CCC(C(=O)O)(CC2)C4)C3)cccc1-c1cccc(NC(=O)c2nc3c(n2C)CCN(C)C3)c1Cl` [Example 39, 4-(2-(2-((2′-chloro-3′-(1,5-dimethyl-4,5,6,7-tetrahydro-1H-imidazo[4,5-c]pyridine-2-carboxamido)-2-methyl-[1,1′-biphenyl]-3-yl)carbamoyl)-1-methyl-1,4,6,7-tetrahydro-5H-imidazo[4,5-c]pyridin-5-yl)ethyl)bicyclo[2.2.1]heptane-1-carboxylic acid] returned a concentration for a half-maximal effect (EC50) in test [1] of 0.01 to 0.1 µM. The results for the half-maximal inhibitory concentration (IC50) in test [2] and in test [3] were at most 0.005 µM and at most 0.01 µM, respectively.

`Cn1c(C(=O)Nc2cccc(-c3cccc(NC(=O)c4nc5c(n4C)CCNC5)c3C#N)c2Cl)nc2c1CCN(CCC13CCC(C(=O)O)(CC1)C3)C2` [Example 46, 4-(2-(2-((2-chloro-2′-cyano-3′-(1-methyl-4,5,6,7-tetrahydro-1H-imidazo[4,5-c]pyridine-2-carboxamido)-[1,1′-biphenyl]-3-yl)carbamoyl)-1-methyl-1,4,6,7-tetrahydro-5H-imidazo[4,5-c]pyridin-5-yl)ethyl)bicyclo[2.2.1]heptane-1-carboxylic Acid] displayed an EC50 in test [1] of 0.01 to 0.1 µM. Also, the half-inhibitory concentration (IC50) is at most 0.005 µM in test [2] and at most 0.01 µM in test [3].

Compound `CN1CCc2c(nc(C(=O)Nc3cccc(-c4cccc(NC(=O)c5nc6c(n5C)CCN(CCC57CCC(C(=O)O)(CC5)C7)C6)c4Cl)c3C#N)n2C)C1` [Example 48, 4-(2-(2-((2-chloro-2′-cyano-3′-(1,5-dimethyl-4,5,6,7-tetrahydro-1H-imidazo[4,5-c]pyridine-2-carboxamido)-[1,1′-biphenyl]-3-yl)carbamoyl)-1-methyl-1,4,6,7-tetrahydro-5H-imidazo[4,5-c]pyridin-5-yl)ethyl)bicyclo[2.2.1]heptane-1-carboxylic acid] registered a concentration giving a half-maximal response (EC50) in test [1] of 0.01 to 0.1 µM. The figures for the IC50 in test [2] and in test [3] were at most 0.005 µM and at most 0.01 µM, respectively.

With `Cn1c(C(=O)Nc2cccc(-c3cccc(NC(=O)c4nc5c(n4C)CCN(CC46CCC(C(=O)O)(CC4)C6)C5)c3C#N)c2Cl)nc2c1CCN(CCC13CCC(C(=O)O)(CC1)C3)C2` [Example 52, 4-((2-((3′-(5-(2-(4-carboxybicyclo[2.2.1]heptan-1-yl)ethyl)-1-methyl-4,5,6,7-tetrahydro-1H-imidazo[4,5-c]pyridine-2-carboxamido)-2′-chloro-2-cyano-[1,1′-biphenyl]-3-yl)carbamoyl)-1-methyl-1,4,6,7-tetrahydro-5H-imidazo[4,5-c]pyridin-5-yl)methyl)bicyclo[2.2.1]heptane-1-carboxylic acid], the concentration giving a half-maximal response (EC50) in test [1] was 0.1 to 0.5 µM. Moreover, the figures for the IC50 in test [2] and in test [3] were at most 0.005 µM and 0.01 to 0.1 µM, respectively.

`Cc1c(NC(=O)c2nc3c(n2C)CCNC3)cccc1-c1cccc(NC(=O)c2nc3c(n2C)CCN(CCC24CCC(C(=O)O)(CC2)C4)C3)c1C` [Example 53, 4-(2-(2-((2,2′-dimethyl-3′-(1-methyl-4,5,6,7-tetrahydro-1H-imidazo[4,5-c]pyridine-2-carboxamido)-[1,1′-biphenyl]-3-yl)carbamoyl)-1-methyl-1,4,6,7-tetrahydro-5H-imidazo[4,5-c]pyridin-5-yl)ethyl)bicyclo[2.2.1]heptane-1-carboxylic Acid] yielded a half-maximal effective concentration (EC50) in test [1] of 0.01 to 0.1 µM. Also, the IC50 was at most 0.005 µM in test [2] and at most 0.01 µM in test [3].

As to `Cc1c(NC(=O)c2nc3c(n2C)CCN(CCC24CCC(C(=O)O)(CC2)C4)C3)cccc1-c1cccc(NC(=O)c2nc3c(n2C)CCN(CC24CCC(C(=O)O)(CC2)C4)C3)c1C` [Example 55, 4-((2-((3′-(5-(2-(4-carboxybicyclo[2.2.1]heptan-1-yl)ethyl)-1-methyl-4,5,6,7-tetrahydro-1H-imidazo[4,5-c]pyridine-2-carboxamido)-2,2′-dimethyl-[1,1′-biphenyl]-3-yl)carbamoyl)-1-methyl-1,4,6,7-tetrahydro-5H-imidazo[4,5-c]pyridin-5-yl)methyl)bicyclo[2.2.1]heptane-1-carboxylic acid], the EC50 in test [1] was in the range of 0.01 to 0.1 µM. The half-maximal inhibitory concentration (IC50) is at most 0.005 µM in test [2] and at most 0.01 µM in test [3].

In test [1], `Cc1c(NC(=O)c2nc3c(n2C)CCN(CCO)C3)cccc1-c1cccc(NC(=O)c2nc3c(n2C)CCN(CCC24CCC(C(=O)O)(CC2)C4)C3)c1C` [Example 59, 4-(2-(2-((3′-(5-(2-hydroxyethyl)-1-methyl-4,5,6,7-tetrahydro-1H-imidazo[4,5-c]pyridine-2-carboxamido)-2,2′-dimethyl-[1,1′-biphenyl]-3-yl)carbamoyl)-1-methyl-1,4,6,7-tetrahydro-5H-imidazo[4,5-c]pyridin-5-yl)ethyl)bicyclo[2.2.1]heptane-1-carboxylic acid] displayed an EC50 of 0.1 to 0.5 µM. Moreover, the IC50 in test [2] was at most 0.005 µM; in test [3] it was at most 0.01 µM.

As usually defined, the EC50 is the concentration giving half of the maximal effect. The IC50 is the point on the concentration scale where inhibition reaches its midpoint.
